EC50 data for seven compounds are collected here from ChEMBL document CHEMBL5729653, “Substituted pyridotriazine compounds and uses thereof” (2023).

A short description of one test: HIV MT-4 Serum Shift Antiviral Reporter Assay: To quantify the amount of protein binding to human serum, compounds were serially diluted (1:3) in DMSO and acoustically transferred onto 384-well assay plates via a Labcyte ECHO robot. Each plate contained up to 8 test compounds, including negative and positive controls, (DMSO, 5 μM AZT respectively). Assay plates were prepared in duplicate, and tested in either CCM (cell culture media) or HS/CCM (human serum/cell culture media). MT-4 cells were first pre-infected with pLai RLuc reporter virus for 2 h at 37° C., then further diluted in either CCM (RPMI media, 10% FBS, 1% P/S) or HS/CCM (RPMI media, 10% FBS, 50% HS, 1% P/S), and subsequently added to each plate using a Biotek Micro Flow dispenser. After a 72-h incubation in a humidified and temperature controlled incubator (37° C.), Renilla Glo (Promega) was added to all assay plates and chemiluminescence read using an Envision plate-reader. EC50 values were defined as the compound concentration that causes a 50% decrease in luminescence signal, and were calculated using a sigmoidal dose-response model to generate curve fits. To determine the amount of protein binding, EC50 fold shifts (or EC50 shifts) were calculated by dividing EC50 (HS/CCM)/EC50 (CCM).
Settings: not given
`C[C@@H]1CC[C@H](C)N2CN1n1cc(C(=O)NCc3ccc(F)cc3F)c(=O)c(O)c1C2=O`: the EC50 was 1.5 nM.
On the same count and under the same terms, with `C[C@H]1C=C[C@H](C)N2CN1C(=O)c1c(O)c(=O)c(C(=O)NCc3c(F)cc(F)cc3F)cn12` the figure was 1.4 nM.
On the same count and under the same terms, with `C[C@H]1C=CC2(CCC2)N2CN1C(=O)c1c(O)c(=O)c(C(=O)NCc3c(F)cc(F)cc3F)cn12` the figure was 3 nM; with `CO[C@@H]1C=C[C@H](C)N2CN1n1cc(C(=O)NCc3c(F)cc(F)cc3F)c(=O)c(O)c1C2=O`, 1.8 nM.
Still for that read-out and setting: the value for `C[C@@H]1C=C[C@H](CF)N2CN1n1cc(C(=O)NCc3ccc(F)cc3F)c(=O)c(O)c1C2=O` was 1.9 nM.

The test is the same for the next values; noted with them: MT4, 2 h.
For `CC1=C[C@H](C)N2CN([C@@H]1C)n1cc(C(=O)NCc3ccc(F)cc3F)c(=O)c(O)c1C2=O`, the EC50 is 1.4 nM.
On the same count and under the same terms, the value for `C[C@@H]1C[C@H](O)[C@H](O)CN2CN1n1cc(C(=O)NCc3ccc(F)cc3F)c(=O)c(O)c1C2=O` was 1.5 nM.

Broadly, the EC50 is the concentration at which the effect is half-maximal.
